Ki data for 39 compounds are collected here from US8722896B2, “Prokineticin receptor antagonists and uses thereof” (The Regents of the University of California, priority 2008, dated 2014).

Read-outs that look alike come from different tables or passages of the source.

The target in the experiment is recombinant PKR1 (Homo sapiens (Human), UniProt Q8TCW9). As to the kind of experiment: Aequorin-based Ca2+ mobilization antagonist assay, CHO cells expressing PKR1. Format: cell-based. How it is done: An aequorin-based luminescent assay for calcium mobilization was used to measure mobilization of intracellular Ca^2+ (Bullock et al., Mol Pharmacol 65, 582-588, 2004). Chinese hamster ovary (CHO) cells stably expressing photoprotein aequorin and recombinant PKR1 or PKR2 were tested by this method. Briefly, the cells were charged in Opti-MEM (Invitrogen) containing 8 μM of coelenterazine cp at 37° C. for 2 hours. Cells were detached by brief typsinization and maintained in Hank's Balanced Salt Solution (HBSS) plus 10 mM HEPES (pH7.5) and 0.1% BSA at about 5×10^5 cells/ml. Luminescence measurements were made using a Berthold luminometer.
All compounds were diluted in HBSS plus 10 mM HEPES (pH7.5) and 0.1% BSA. To test the agonist activity, 100 μl of cells were injected into the tubes with 20 μl of compounds. For antagonist assays, 80 μl cells were incubated in the tubes with 20 μl different concentrations of antagonists at room temperature for 20 minutes, and then 100 μl of recombinant PK2 were injected. The IC50 obtained from the assays were then converted to Ki values using the formula: IC50/(1+[PK2]/EC50PK2).
The following compounds were prepared using the above synthetic routes and protocols by varying the starting materials, reagents or conditions used. The requisite reagents were either commercially available, described in the literature, or readily synthesized by one skilled in the art. The potency of these compounds in antagonizing PK2-stimulated calcium mobilization were tested in Chinese hamster ovary (CHO) cells that stably express recombinant PKR1 or PKR2.
(In general: A change in cytosolic calcium serves as a functional read-out for many receptors and channels.)

Where [1] appears, read: antagonism of PK2-stimulated calcium mobilization in CHO cells, Ki = IC50/(1+[PK2]/EC50PK2), read-out: Ki for PKR1.

As a reminder, the Ki is the dissociation constant of the complex between target and ligand, obtained from inhibition or displacement. For the compound `CC(C)CN(Cc1cc(Cl)c2c(c1)CCCCO2)C(=O)[C@@H]1CCN(Cc2cccc3c2ccn3C)C1`, the inhibition constant Ki worked out at 11.6 nM.

Consider `CC(C)CN(Cc1cc(Cl)c2c(c1)CCCCO2)C(=O)C1CN(Cc2cccc3cc[nH]c23)CCO1` (racemic), for which the inhibition constant (Ki) turned out to be 4.02 nM.

In the case of `CC(C)CN(Cc1cc(Cl)c2c(c1)OCCCO2)C(=O)[C@@H]1CCCN(Cc2cccc3[nH]ccc23)C1`, the Ki was determined as 38 nM.

Take `Cc1ccccc1CNCC(C)C(=O)N(Cc1cc(Cl)c2c(c1)OCCCO2)CC(C)C` (racemic): the inhibition constant Ki came to 19.6 nM.

As for `CC(=O)Oc1cccc(CN2CCOC(C(=O)N(Cc3cc(Cl)c4c(c3)OCCCO4)CC(C)C)C2)c1` (racemic) [(±)-(3R)-1-(3-acetoxybenzyl)-N-(9-chloro-3,4-dihydro-2H-1,5-benzodioxepin-7-ylmethyl)-N-isobutylmorpholine-3-carboxamide], the inhibitory constant (Ki) under setting [1] came to 8.5 nM.

As for `Cc1cccc(CNCC(C)C(=O)N(Cc2cc(Cl)c3c(c2)OCCCO3)CC(C)C)c1` (racemic), the inhibition constant Ki was determined as 44.2 nM.

For `COc1cc(CN2CCC[C@@H](C(=O)N(Cc3cc(Cl)c4c(c3)OCCCO4)CC(C)C)C2)ccc1F` [(−)-(3R)-1-(4-Fluoro-3-methoxybenzyl)-N-(9-chloro-3,4-dihydro-2H-1,5-benzodioxepin-7-ylmethyl)-N-isobutylpiperidine-3-carboxamide], under setting [1], the Ki is 8.68 nM.

In the case of `CC(C)CN(Cc1cc(Cl)c2c(c1)OCCCO2)C(=O)[C@H](C)CNCc1cc(F)c(F)cc1F`, the Ki came out at 258 nM.

For `CC(C)CN(Cc1cc(Cl)c2c(c1)OCCCO2)C(=O)[C@@H]1CCN(Cc2cccc(N)c2)C1`, the Ki stood at 133 nM.

In the case of `COc1ccccc1CN1CCC[C@@H](C(=O)N(Cc2cc(Cl)c3c(c2)OCCCO3)CC(C)C)C1`, the inhibition constant (Ki) is 38.8 nM.

As to `Cc1ccccc1CN1CCOC(C(=O)N(Cc2cc(Cl)c3c(c2)OCCCO3)CC(C)C)C1` (racemic), the inhibition constant Ki is 37.4 nM.

For `Cc1ccc(C)c(CN2CCOC(C(=O)N(Cc3cc(Cl)c4c(c3)OCCCO4)CC(C)C)C2)c1` (racemic), the Ki turned out to be 83 nM.

`Cc1cccc(C)c1CNCC(C)C(=O)N(Cc1cc(Cl)c2c(c1)OCCCO2)CC(C)C` (racemic): the inhibition constant (Ki) is 44 nM.

`COc1cc(CN2CC[C@@H](C(=O)N(Cc3cc(Cl)c4c(c3)OCCCO4)CC(C)C)C2)ccc1F` [(−)-(3R)-1-(4-Fluoro-3-methoxybenzyl)-N-(9-chloro-3,4-dihydro-2H-1,5-benzodioxepin-7-ylmethyl)-N-isobutylpyrrolidine-3-carboxamide]: the Ki under setting [1] is 9.66 nM.

Consider `CCc1c(C)cccc1CNCC(C)C(=O)N(Cc1cc(Cl)c2c(c1)OCCCO2)CC(C)C` (racemic), for which the Ki worked out at 226 nM.

For `CCc1c(C)cccc1CN1CC[C@@H](C(=O)N(Cc2cc(Cl)c3c(c2)OCCCO3)CC(C)C)C1`, the inhibition constant Ki came to 226 nM.

As for `CC(C)CN(Cc1cc(Cl)c2c(c1)OCCCO2)C(=O)C1CN(Cc2cccc3c2ccn3C)CCO1` (racemic), the Ki worked out at 12.5 nM.

Take `CC(C)CN(Cc1cc(Cl)c2c(c1)OCCCO2)C(=O)C(C)CNCc1cccc2ccn(C)c12` (stereo not drawn): the inhibitory constant (Ki) was 16.5 nM.

In the case of `CC(=O)Oc1cccc(CN2CCC[C@@H](C(=O)N(Cc3cc(Cl)c4c(c3)OCCCO4)CC(C)C)C2)c1` [(−)-(3R)-1-(3-acetoxybenzyl)-N-(9-chloro-3,4-dihydro-2H-1,5-benzodioxepin-7-ylmethyl)-N-isobutylpiperidine-3-carboxamide], the Ki under setting [1] stood at 107 nM.

`COc1cc(CNCC(C)C(=O)N(Cc2cc(Cl)c3c(c2)OCCCO3)CC(C)C)ccc1F` (racemic) [(±)-2-Methyl-3-((3-methoxy-4-fluoro)benzylamino)-N-(9-chloro-3,4-dihydro-2H-1,5-benzodioxepin-7-ylmethyl)-N-isobutylpropanamide]: under setting [1], the Ki was found to be 11.6 nM.

As to `CC(C)CN(Cc1cc(Cl)c2c(c1)OCCCO2)C(=O)C1CCN(Cc2ccccc2)O1` (racemic), the inhibitory constant (Ki) was 2200 nM.

Take `CC(C)CN(Cc1cc(Cl)c2c(c1)OCCCO2)C(=O)C(C)CNCc1cccc2c1OCO2` (stereo not drawn): the inhibition constant Ki came to 44.8 nM.

With `COc1cc(F)ccc1CNCC(C)C(=O)N(Cc1cc(Cl)c2c(c1)OCCCO2)CC(C)C` (racemic) [(±)-2-Methyl-3-((2-methoxy-4-fluoro)benzylamino)-N-(9-chloro-3,4-dihydro-2H-1,5-benzodioxepin-7-ylmethyl)-N-isobutylpropanamide], the inhibitory constant (Ki) under setting [1] amounted to 50 nM.

With `COc1cc(F)ccc1CN1CC[C@@H](C(=O)N(Cc2cc(Cl)c3c(c2)OCCCO3)CC(C)C)C1` [(−)-(3R)-1-(4-Fluoro-2-methoxybenzyl)-N-(9-chloro-3,4-dihydro-2H-1,5-benzodioxepin-7-ylmethyl)-N-isobutylpyrrolidine-3-carboxamide], the inhibition constant Ki under setting [1] came out at 7.72 nM.

Consider `CC(C)CN(Cc1cc(Cl)c2c(c1)OCCCO2)C(=O)C(C)CNCc1cccc2c1OCCO2` (racemic), for which the inhibition constant Ki was 58.4 nM.

Turning to `COc1cc(F)ccc1CN1CCC[C@@H](C(=O)N(Cc2cc(Cl)c3c(c2)OCCCO3)CC(C)C)C1` [(−)-(3R)-1-(4-Fluoro-2-methoxybenzyl)-N-(9-chloro-3,4-dihydro-2H-1,5-benzodioxepin-7-ylmethyl)-N-isobutylpiperidine-3-carboxamide], under setting [1], the Ki came to 65.2 nM.

Regarding `CC(C)CN(Cc1cc(Cl)c2c(c1)OCCCO2)C(=O)C1CN(Cc2cccc3ccn(C)c23)CCO1` (racemic), the Ki stood at 24.4 nM.

`COc1ccccc1CN1CCC[C@@H](C(=O)N(Cc2ccc3c(c2)OCCCO3)CC(C)C)C1`: the Ki is 38.6 nM.

Turning to `CC(C)CN(Cc1cc(Cl)c2c(c1)OCCCO2)C(=O)[C@@H]1CCN(Cc2ccc(F)c(N)c2)C1`, the Ki came to 24 nM.

Take `COc1ccccc1CN1CC[C@@H](C(=O)N(Cc2ccc3c(c2)OCCCO3)CC(C)C)C1`: the inhibition constant Ki was determined as 12.8 nM.

In the case of `CC(C)CN(Cc1cc(Cl)c2c(c1)CCCCO2)C(=O)[C@@H]1CCCN(Cc2cccc3ccn(C)c23)C1`, the Ki worked out at 9.42 nM.

Regarding `CC(C)CN(Cc1cc(Cl)c2c(c1)OCC(F)(F)CO2)C(=O)[C@@H]1CCN(Cc2ccccc2)C1` [(−)-(3R)-1-Benzyl-N-(9-chloro-3,3-difluoro-3,4-dihydro-2H-1,5-benzodioxepin-7-ylmethyl)-N-isobutylpyrrolidine-3-carboxamide], the inhibition constant (Ki) under setting [1] amounted to 224 nM.

For `CC(C)CN(Cc1cnc2c(c1)OCCCO2)C(=O)C1CCCN(Cc2cccc3cc[nH]c23)C1` (single isomer, unassigned; (-)), the Ki under setting [1] came to 104 nM.

As for `CCc1cccc(CN2CC[C@@H](C(=O)N(Cc3cc(Cl)c4c(c3)OCCCO4)CC(C)C)C2)c1`, the inhibitory constant (Ki) was 88.8 nM.

With `Cc1cccc(CNCC(C)C(=O)N(Cc2cc(Cl)c3c(c2)OCCCO3)CC(C)C)c1C` (racemic), the Ki is 13 nM.

With `CC(C)CN(Cc1cc(Cl)c2c(c1)OCCCO2)C(=O)[C@@H]1CCCN(Cc2cccc3c2NCC3)C1`, the Ki was 3.29 nM.

Turning to `Cc1cccc(CN2CCC[C@@H](C(=O)N(Cc3cc(Cl)c4c(c3)OCCCO4)CC(C)C)C2)c1`, the Ki stood at 29.4 nM.

For the compound `CC(C)CN(Cc1cc(Cl)c2c(c1)OCCCO2)C(=O)[C@@H]1CCCN(Cc2cccc3c2N(C)CC3)C1` [(−)-(3R)-1-(N-methyl-indolin-7-ylmethyl)-N-(9-chloro-3,4-dihydro-2H-1,5-benzodioxepin-7-ylmethyl)-N-isobutylpiperidine-3-carboxamide], the Ki under setting [1] was 87.3 nM.

On to `CC(C)CN(Cc1cc(Cl)c2c(c1)CCCCO2)C(=O)C1CN(Cc2cccc3ccn(C)c23)CCO1` (racemic), for which the Ki is 9.94 nM.
